Key:
Assay in all cases: relative viability (nuclei count vs DMSO), 5 days (fraction); higher = more cells survive
TGX 221 + Foretinib = compound: CC1=CN2C(=O)C=C(N=C2C(=C1)C(C)NC3=CC=CC=C3)N4CCOCC4 [TGX 221] + COc1cc2c(Oc3ccc(NC(=O)C4(C(=O)Nc5ccc(F)cc5)CC4)cc3F)ccnc2cc1OCCCN1CCOCC1 [Foretinib] (partner 0.25 µM)
Method in brief: (§1)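 Each reported value is a median over duplicate plates. It expresses relative viability: treated-well nuclei count divided by vehicle-well nuclei count. Lung cancer cell lines in 1536-well plates were dosed by pin tool a day after seeding, alone with one drug or with a fixed anchor-drug dose plus five library-drug doses (not always all listed) in √10 steps, and nuclei were counted after 5 days.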

[1] = compound: C1=CC=C(C(=C1)C2=CC=C(C=C2)C3=CSC4=C3C(=C(C(=O)N4)C#N)O)O + Nc1ncn([C@H]2C[C@H](O)[C@@H](CO)O2)c(=O)n1 [Decitabine] (partner 2 µM)
Method in brief: as §1

TGX 221 + Bortezomib = compound: CC1=CN2C(=O)C=C(N=C2C(=C1)C(C)NC3=CC=CC=C3)N4CCOCC4 [TGX 221] + CC(C)C[C@H](NC(=O)[C@H](Cc1ccccc1)NC(=O)c1cnccn1)B(O)O [Bortezomib] (partner 0.002 µM)
Method in brief: as §1

Cell Line	relative viability (TGX 221 + Foretinib; first compound 0.08 µM)	relative viability (TGX 221 + Foretinib; first compound 0.253 µM)	relative viability (TGX 221 + Foretinib; first compound 0.8 µM)	relative viability (TGX 221 + Foretinib; first compound 2.53 µM)	relative viability (TGX 221 + Foretinib; first compound 8 µM)	relative viability ([1]; first compound 0.08 µM)	relative viability ([1]; first compound 0.253 µM)	relative viability ([1]; first compound 0.8 µM)	relative viability ([1]; first compound 2.53 µM)	relative viability ([1]; first compound 8 µM)	relative viability (TGX 221 + Bortezomib; first compound 0.08 µM)	relative viability (TGX 221 + Bortezomib; first compound 0.253 µM)	relative viability (TGX 221 + Bortezomib; first compound 0.8 µM)	relative viability (TGX 221 + Bortezomib; first compound 2.53 µM)	relative viability (TGX 221 + Bortezomib; first compound 8 µM)
NCI-H2342	1.03	1.02	1.03	0.903	0.985	0.826	0.774	0.724	0.729	0.604	–	–	–	–	–
SK-LU-1	0.808	0.703	0.768	0.63	0.657	0.506	0.572	0.593	0.575	0.497	1.04	1.09	1.04	1.38	1.11
NCI-H2023	0.879	0.584	0.797	0.724	0.445	0.242	0.247	0.197	0.222	0.196	0.947	0.864	1.06	0.861	0.857
NCI-H1299	1.12	1.06	1.1	1.13	1.07	–	–	–	–	–	0.985	1	0.989	1.03	0.948
LOU-NH91	0.766	0.922	0.945	0.907	0.781	0.854	0.865	0.824	0.781	0.782	0.492	0.52	0.514	0.381	0.51
LCLC-103H	0.698	0.761	0.883	0.724	0.619	0.799	0.734	0.695	0.697	0.79	0.999	1.12	0.981	1.01	1.06
SW 1573	0.889	0.881	0.975	0.822	0.851	0.447	0.536	0.552	0.468	0.425	0.91	1.09	1.04	0.945	0.839
NCI-H1755	0.926	0.884	0.82	0.763	0.781	0.736	0.723	0.722	0.749	0.731	1.03	0.855	0.97	0.887	0.886
COR-L 105	0.993	0.976	0.99	0.825	0.781	0.715	0.684	0.793	0.664	0.564	0.832	0.816	1.01	0.698	0.736
NCI-H1793	0.708	0.462	0.51	0.452	0.411	0.483	0.5	0.483	0.499	0.49	–	–	–	–	–
EMC-BAC-2	1.03	0.882	0.882	0.903	0.773	0.893	–	0.979	0.967	0.933	1.02	1.02	1.08	1.03	1.07
H3255	0.88	0.762	0.844	0.852	0.868	0.481	0.618	–	0.644	0.585	0.685	0.732	0.792	0.776	0.708
PC-14	1.04	0.953	0.934	1.06	0.858	0.222	0.242	0.24	0.225	0.195	0.895	0.89	0.828	0.804	0.874
NCI-H661	1.03	0.987	1.02	1.09	0.82	0.532	0.559	0.538	0.558	0.436	0.689	0.59	0.75	0.677	0.668
HARA	0.703	0.71	0.904	0.849	0.667	0.592	0.769	0.596	0.548	0.459	1.13	1.07	1.05	1.09	1.2
COR-L23	0.889	0.912	1.04	0.964	0.938	0.469	0.54	0.429	0.431	0.417	0.876	0.964	0.928	1.06	1.01
SK-MES-1	0.994	0.733	0.863	0.75	0.558	0.382	0.408	0.383	0.404	0.376	–	–	–	–	–
NCI-H1395	0.903	0.961	0.873	0.716	0.628	–	0.801	0.703	0.702	0.745	–	–	–	–	–
NCI-H2170	0.995	1.1	0.991	0.945	0.978	0.551	0.467	0.467	0.454	0.446	–	–	–	–	–
NCI-H647	1.05	1.04	1.21	0.762	0.931	–	0.532	0.407	0.439	0.279	0.929	0.66	0.926	0.676	0.616

— the supplement of paper PMC10307832
